Consider five molecules from paper PMC4076079, “Selective inhibitors of a PAF biosynthetic enzyme lysophosphatidylcholine acyltransferase 2” (Journal of Lipid Research, 2014).

SMILES strings stand for the structures. Where two headings read alike, the source gives them in different places.

Data set [1] can be described thus: cell viability assay (WST-8). It is filed as cell-based. To be noted: mouse, RAW264.7 cells (wild-type), 36 h treatment, data not shown, read-out: cytotoxicity IC50 (cell viability). The method, then:
(§1) Cell viability was measured using a modified MTT [3-(4,5-dimethylthiazol-2-yl)-2,5-diphenyltetrazolium bromide] dye reduction assay using WST-8 [2-(2-methoxy-4-nitrophenyl)-3-(4-nitrophenyl)-5-(2,4-disulfophenyl)-2H-tetrazolium, monosodium salt; Dojindo Molecular Technologies, Inc., Kumamoto, Japan] according to the manufacturer’s instructions. […] or RAW-mLPCAT2 cells were seeded in 96-well plates (1 × 10^4 cells/well) for 8 h and then treated with a compound for 36 h. WST-8 was added for another 2 h and the 450 nm absorbance was measured using a microplate reader (Bio-Rad). Cell viability was expressed as a percentage of vehicle-treated control values. To observe the effects of the incubation time on cell viability, 0.4 × 10^4 RAW-mLPCAT2 cells were treated with compounds for 1 or 6 h before the WST-8 assay.
(§2) Step 8 screening: cell viability assay
(§3) Wild-type RAW264.7 cells and RAW264.7 cells transfected with mLPCAT2 or control plasmid were used. Cells were cultured for 36 h with 0, 0.06, 0.2, 0.6, 2, 6, and 20 µM of compounds in 96-well plates and assayed for viability with WST-8. […]
(§4) The data were normalized to each positive control (100% activation). Percentage inhibition or IC50 were determined in each screening step. To assess screening quality, the percentage coefficient of variance and the Z’ factor was calculated for each plate or each assay as described previously (2).

Data set [2] in a line: cell viability assay (WST-8). It is filed as cell-based, mouse. Particulars: mouse, RAW-mLPCAT2 cells (RAW264.7 cells transfected with mLPCAT2), 36 h treatment, WST-8, data not shown, read-out: cytotoxicity IC50 (cell viability). The procedure: as §1, §2, §3, §4
For orientation: Tetrazolium dyes change colour on reduction, which living cells bring about.

The next data set concerns RAW-mLPCAT2 cells. In words: cell viability assay (WST-8). It is filed as cell-based, mouse. To be noted: Mus musculus, 1 h pretreatment. The method, then: as §1, §2, §3, §4
For the next data set, the target named is T1, hLPCAT2 (Homo sapiens, UniProt Q7L5N7).
T1 construct: expressed in transfected cells; host or cells: CHO-S-PAFR cells (microsomal fraction), with or without mcPAF stimulation
T1 sequence (Q7L5N7 1-544): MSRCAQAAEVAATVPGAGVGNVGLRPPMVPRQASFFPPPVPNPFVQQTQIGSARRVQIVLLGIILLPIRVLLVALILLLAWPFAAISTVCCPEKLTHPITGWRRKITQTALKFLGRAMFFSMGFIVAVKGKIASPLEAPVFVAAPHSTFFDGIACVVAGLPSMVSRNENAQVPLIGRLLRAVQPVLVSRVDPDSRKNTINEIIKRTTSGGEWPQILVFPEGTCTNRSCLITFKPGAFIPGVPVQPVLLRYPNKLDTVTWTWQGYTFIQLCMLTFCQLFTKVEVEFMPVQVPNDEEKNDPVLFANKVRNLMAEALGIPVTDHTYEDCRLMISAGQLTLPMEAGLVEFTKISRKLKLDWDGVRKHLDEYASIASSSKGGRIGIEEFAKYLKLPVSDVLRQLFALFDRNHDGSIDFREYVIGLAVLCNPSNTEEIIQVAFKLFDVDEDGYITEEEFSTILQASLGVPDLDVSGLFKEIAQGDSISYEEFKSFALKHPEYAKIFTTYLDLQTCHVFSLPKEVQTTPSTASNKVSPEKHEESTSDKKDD
The experiment in a line: acyltransferase activity assay, 16:0/20:4 alkyl-PC product by LC-MS/MS. It is filed as biochemical. To be noted: for IC50: 0, 0.2, 0.6, 2, 6 and 20 μM of each compound in triplicate, LC-MS/MS, read-out: IC50, product Alkyl-PC (16:0/20:4 alkyl-PC), enzyme hLPCAT2; for percentage inhibition, product 16:0/20:4 Alkyl-PC, hLPCAT2: 20 μM compound, microsomal fractions of nonstimulated CHO-S-PAFR cells, n = 3, mean ± SEM. The procedure: Microsomal protein fractions (0.5 μg) supplemented with the indicated compound concentrations were added to the reaction mixture containing 100 mM Tris-HCl (pH 7.4), 1 μM CaCl2, 0.015% Tween-20, and two substrates. For acetyltransferase activity, the substrates were 1 mM acetyl-CoA and 5 μM d4-lyso-PAF; for the acyltransferase activity of LPCAT1 or LPCAT2, the substrates were, respectively, palmitoyl-CoA and d31-16:0 LPC or arachidonoyl-CoA and d4-lyso-PAF (all 5 μM). Each lysophospholipid contained fatty acid at the sn-1 position. After incubation at 37°C for 5 min, the reactions were stopped by adding 300 μl methanol containing 17:0 LPC or 14:0/14:0 PC as an internal standard. Deuterium-labeled products were analyzed by LC-MS/MS (Waters, Milford, MA and Thermo Scientific, Waltham, MA). […]
Steps 2 to 5 screening: 96-well plate assay
Acetyltransferase and acyltransferase assays were developed in 96-well plates. The microsomal hLPCAT2, obtained from mcPAF-stimulated CHO-S-PAFR cells was used in steps 1, 2, and 5. The microsomal hLPCAT1 obtained from unstimulated CHO-S cells was used in steps 3 to 5. Each well of the 96-well plates contained 30 µl of 15 µg/ml protein, 600 nl of 2 mM compound, 30 µl buffer C, and two substrates (Fig. 1B and C).
Substrate concentrations were as follows: acetyl-CoA, 250 or 1000 µM acetyl-CoA; […]
arachidonoyl-CoA, 5 µM; palmitoyl-CoA, 5 µM; d4-lyso-PAF, 5 µM; and d31-LPC, 5 µM.
For step 5, compound concentrations were 0, 0.167, 0.67, 2, 6.7, and 20 µM. The deuterium-labeled products were measured by LC-MS/MS. Percentage inhibition (steps 2 to 4) or IC50 (step 5) was used as the hit criterion. […]
Step 7 screening: species-specific differences
To evaluate the effects on the activity of mouse or human LPCAT1 and LPCAT2, each microsomal fraction was obtained using CHO-S-PAFR cells with or without mcPAF (200 nM) stimulation for 5 min. Acetyltransferase and acyltransferase assays were performed with 20 µM of each compound. Percentage inhibition was calculated in each

Regarding `CC(C)OC(=O)c1ccc(N2C(=O)C(Cl)=C(Nc3ccccc3O)C2=O)cc1` [TSI-07], the IC50 at 36 h in data set [1] and in data set [2] was above 20 µM each time. The values for the IC50 in the data set with RAW-mLPCAT2 cells and at hLPCAT2 were above 60 µM and 13.3 µM, respectively. Further, the “percentage inhibition, product 16:0/20:4 Alkyl-PC, hLPCAT2” value (from here on “percentage inhibition”) on hLPCAT2 is 83.1 ± 4.3 percentage.
`CCCCOC(=O)c1ccc(N2C(=O)C(Cl)=C(Cl)C2=O)cc1` [TSI-11, butyl 4-(3,4-dichloro-2,5-dioxopyrrol-1-yl)benzoate]: the IC50 at 36 h in data set [1] and in data set [2] was above 20 µM each time. For the same molecule, the IC50 was above 60 µM in the data set with RAW-mLPCAT2 cells and 0.33 µM on hLPCAT2. Besides, the “percentage inhibition” value on hLPCAT2 is 80.4 ± 2.7 percentage.
Turning to `CCCOC(=O)c1ccc(N2C(=O)C(Cl)=C(Cl)C2=O)cc1` [TSI-10], the IC50 at 36 h in data set [1] and in data set [2] was above 20 µM each time. Also, the IC50 in the data set on RAW-mLPCAT2 cells was above 60 µM; on hLPCAT2 it was 0.3 µM. For the same molecule, the “percentage inhibition” value at hLPCAT2 stood at 85.4 ± 3.0 percentage.
On to `O=C1C(Cl)=C(N2CCOCC2)C(=O)N1c1ccc(Oc2ccccc2)cc1` [TSI-02, 3-chloro-4-morpholin-4-yl-1-(4-phenoxyphenyl)pyrrole-2,5-dione], for which, at hLPCAT2, the IC50 is 1.16 µM.
Take `CC(C)OC(=O)c1ccc(N2C(=O)C(Cl)=C(Cl)C2=O)cc1` [TSI-01, propan-2-yl 4-(3,4-dichloro-2,5-dioxopyrrol-1-yl)benzoate]: the IC50 at 36 h in data set [1] and in data set [2] was above 20 µM in each case. The IC50 with RAW-mLPCAT2 cells was above 60 µM; at hLPCAT2 it was 1.27 µM. Also, the “percentage inhibition” value at hLPCAT2 came out at 95.2 ± 1.3 percentage.
